The text below walks through data of patent US20220008359A1, “COMBINATION ANTI-CANCER PRODUCTS AND METHODS” (priority 2020, published 2022).

This assay has as its system H1650 cells (wild type). Briefly: In-cell immunostaining of protein expression and phosphorylation, H1650 wild type cells. Format: cell-based, human. To be noted: H1650 WT, 6 h; VEH = 100. As for the experimental part:
Assessments of protein expression and protein phosphorylation. Multi-channel fluorescence HCS microscopes perform true in-cell western blotting. Three independent cultures derived from three thawed vials of cells of a tumor were sub-cultured into individual 96-well plates. Twenty-four hours after plating, the cells are transfected with a control plasmid or a control siRNA, or with an empty vector plasmid or with plasmids to express various proteins. After another 24 hours, the cells are ready for drug exposure(s). At various time-points after the initiation of drug exposure, cells are fixed in place using paraformaldehyde and using Triton X100 for permeabilization. Standard immunofluorescent blocking procedures are employed, followed by incubation of different wells with a variety of validated primary antibodies and subsequently validated fluorescent-tagged secondary antibodies are added to each well. The microscope determines the background fluorescence in the well and in parallel randomly determines the mean fluorescent intensity of 100 cells per well.

Marks after values point to notes of the source that are not given here.

On to `Nc1nc2[nH]cc(CCc3ccc(C(=O)N[C@@H](CCC(=O)O)C(=O)O)cc3)c2c(=O)[nH]1` [PEM, Pemetrexed], for which the BCL-XL expression was 84*, the ERK2 expression is on record as 100, the FLIP-s expression is listed as 92 and the MCL-1 expression is given as 83*.
